These results are taken from patent US20080075786A1, “Antimicrobial agents derived from cream” (Universite de Montreal, priority 2006, published 2008).

The subject of data set [1] is A. fumigatus. Put plainly: Antifungal assay against A. fumigatus (optical density at 630 nm). In kind it is cell-based. The following applies: Aspergillus fumigatus, 40 h, Sabouraud, 30° C., commercial FFA. Here is the method:
(§1) Fractionation of Blackcurrant Seed Oil. Journal of the American Oil Chemists Society 65: 755-760). […] Under constant stirring, the mixture was heated to 75° C., or until it became clear, and then cooled slowly to 2° C. After completion of urea crystallization at 2° C. (15 h), the UFFA enriched methanol phase was separated from the urea crystals by centrifugation (5 min) at 1000×g. […] Yields were determined gravimetrically. […] UV detection was used to monitor effluent at 215 nm. Water (10 ml) was added to each of the 45 collected HPLC fractions, and they were then extracted three times with hexane (3×10 ml). […] Antifungal assay using commercial FFA were done in quadruplicates. The antifungal activity was evaluated in 96-well microtiter plates (Costar 3595) using Sabouraud as incubating medium for A. fumigatus and dextrose-free Sabouraud for C. albicans. Spores of A. fumigatus (Jeanine Joly, Université de Montréal) were germinated at 25° C. on slant agar Sabouraud media. They were harvested by washing vigorously slant cultures with 5 ml of 0.9% NaCl. Coarse debris were removed by filtrating the Aspergillus spores suspension through a sterile cotton plugs inserted into a Pasteur pipet. Monodisperse spores suspensions were obtained following brief sonications in a water bath sonicator (Branson 1210). […] Blastospores of the C. albicans SC5314 strain were prepared as for germination inhibition assays (see above). […] Wells were washed three times with Sabouraud before optical reading.

In data set [2] the test system is C. albicans SC5314 strain. Put plainly: Antifungal assay against C. albicans (optical density at 630 nm). In kind it is cell-based, Candida albicans. The settings on record: Candida albicans, SC5314, 40 h, dextrose-free Sabouraud, 37° C., commercial FFA. Here is the method:
as §1

The nature of data set [3]: Cytotoxicity assay (LDH release). The settings on record: human. On the procedure: Cytotoxicity was evaluated using Peripheral Blood Mononuclear cells (PBMC) of volunteers donors (Royal Victoria Hospital, Montreal). These cells were purified by the ficoll-Paque PLUS according to the manufacturer (Amersham-Bioscience). PBMC were used at a density of 100 000 cells/ml in RPMI 1640 (Sigma) supplemented with 10% heat-inactivated fetal bovine serum, 0.3 g/L of L-glutamine, 2 g/L sodium carbonate, 100 U/ml of penicillin and 100 μg/ml of streptomycin (Sigma). Assays were done in 96-well microtiter plates (Costar 3595) and the cytotoxicity was evaluated after 24 hours of incubation at 37° C. in a 5% CO2 atmospheric incubator using the LDH Cytotoxicity detection kit, according to the manufacturer (Roche Diagnostic). […] FFA were diluted in ethanol (96%) and no more than 1% ethanol (final concentration) was used in assays. Ethanol (1%) was used as negative control.
This method measures the release of lactate dehydrogenase (LDH) from the cytosol of damaged cells into the supernatant (Roche Diagnostic).

Data set [4] relates to Candida albicans SC5314 strain. Put plainly: Germination inhibition assay (antihyphal growth activity). Type of data set: cell-based. The settings on record: for activity at inhibiting C. albicans germination: individual commercial free fatty acids, highest concentration used 81 μM. Here is the method: The Candida albicans SC5314 strain (Fonzi, W. A. and Irwin, M. Y. 1993. Isogenic strain construction and gene mapping in Candida albicans. Genetics 134: 717-728.) was used to investigate the antihyphal activity of whey cream lipids. This strain was routinely grown as yeast cells at 30° C. in YPD medium (1% yeast extract, 2% peptone, 2% dextrose). Germination was induced by incubating cells in dextrose-free Sabouraud (Difco; Joshi, K. R., Gavin, J. B., and Bremner, D. A. 1973. The formation of germ tubes by Candida albicans in various peptone media. Sabouraudia. 11: 259-262.) at 37° C. in 96-wells microtiter plates (Costar 3595). Briefly, cells from fresh YPD cultures were harvested and washed twice with sterile water. Washed cells were suspended in dextrose-free Sabouraud at a density of 5×10^3 cells/ml and then immediately distributed to microtiter wells containing an equal volume of dextrose-free Sabouraud supplemented with different concentrations of lipids. After 15 h incubation at 37° C. in an atmospheric incubator without agitation, cells were washed and fixed with a fresh 1% formaldehyde solution. The ability of lipids to inhibit germination was determined by microscopic observations.

The subject of data set [5] is Candida albicans ZK3379 strain (CAI-4 HWP1-lacZ). Put plainly: C. albicans HWP1-lacZ beta-galactosidase and XTT assays (kinetics of germination inhibition in hyphae inducing media). In kind it is cell-based. The settings on record: for germ tube emergence and elongation: all inducing conditions tested (dextrose-free Sabouraud, Lee's, Spider, HFM7), 0-6 h (FIG. 2). Here is the method: Candida albicans ZK3379 strain (CAI-4 HWP1-lacZ; Hogan, D A, Vik A, Kolter R (2004). A Pseudomonas aeruginosa quorum-sensing molecule influences Candida albicans morphology. Mol Microbiol 54: 1212-1223.) was used for beta-galactosidase and XTT assays. Cells from this strain were grown in YPDA at 30° C. to a density of about 1×10^8 cells/ml (hemacytometer). These late exponentially growing cells were then washed twice with water and kept on ice until used. Germination was induced by incubating cells (final density of 5×10^5 cells/ ml) at 37° C. in 2.5 ml of either dextrose-free Sabouraud (Joshi et al., 1973), Lee's (Lee K L, Buckley H R, Campbell C C (1975). An amino acid liquid synthetic medium for the development of mycelial and yeast forms of Candida albicans. Sabouraudia 13: 148-153, Spider (Liu H, Kohler J, Fink Gr (1994). Suppression of hyphal formation in Candida albicans by mutation of a STE12 homolog. Science 266: 1723-1726 or Hypha-Forming Media (Biswas S K, Yokoyama K, Kamei K, Nishimur K, Miyaji M (2001) Inhibition of hyphal growth of Candida albicans by activated lansoprazole, a novel benzimidazole proton pump inhibitor Med Mycol 39: 283-285.), supplemented with FFAs. All lipids were dissolved in ethanol. Assays were performed in duplicate in 24-wells mictotiter plates (Costar 3526) without agitation. After appropriate incubation times (i.e. 0, 2, 4 or 6 h), microtiter plates were centrifuged for 5 min at 2000 rpm (Jouan inc. CR3i) and supernatents, discarded. XTT assays were done immediately and essentially as described (Honraet K, Goetghebeur E, Nelis H J (2005). Comparison of three assays for the quantification of Candida biomass in suspension and CDC reactor grown biofilms. J Microbiol Methods 63: 287-295). For beta-galactosidase assays, microtiter plates were frozen at −80° C. and processed later as described (Kippert F (1995). A rapid permeabilization procedure for accurate quantitative determination of beta-galactosidase activity in yeast cells. FEMS Microbiol Lett 128: 201-206; Hogan et al., 2004) but directly in microtiters plates. Absorbances were measured in 96-well microtiters plates using a microtiter plate reader (Microplate Reader MR600), equipped with filters of 410 nm (beta-galactosidase) and 490 nm (XTT), respectively.
As inhibition of germination of C. albicans by molecules could be the result of early and/or late blocking events, a more comprehensive analysis of the activity of free fatty acids was performed using multiple time points and other germ tube inducing media. Therefore, germination was monitored at 0, 2, 4 and 6 h in dextrose-free Sabouraud, Lee's, Spider and HFM7 (i.e. serum) media using the C. albicans HWP1-lacZ assay: beta-galactosidase measurements should reflect the morphological change from yeast cells to hyphal growth (Hogan et al., 2004). beta-galactosidase results were normalized using the XTT assay (Honraet et al., 2005) to correct for biomass increase. Microscopic observations of cells after 6 h incubation are also presented for each inducing conditions and correlated with beta-galactosidase data (FIG. 2).
Background: Tetrazolium dyes change colour on reduction, which living cells bring about.

Setting [6] is: Candida albicans, SC5314, 15 h, read-out: MIC, antihyphal growth activity of individual free fatty acids.
Where [7] appears, read: Candida albicans, SC5314, read-out: MIC, antihyphal growth activity of individual free fatty acids.
The mark [8] stands for this setting: Candida albicans, SC5314, commercial free fatty acids, complete inhibition of germination, 15 h, 37° C., gravimetrical quantification, read-out: MIC, antihyphal growth activity of individual free fatty acids.
Where [9] appears, read: Candida albicans, SC5314, same MIC in μg/ml (in brackets), commercial free fatty acids, gravimetrical quantification, read-out: MIC, antihyphal growth activity of individual free fatty acids.
Setting [10] is: commercial free fatty acids, complete inhibition of germination, 15 h, 37° C., gravimetrical quantification, read-out: MIC, antihyphal growth activity of individual free fatty acids.

pIC50: −log10 of the molar value. Like-named read-outs stand apart in the source and are kept apart here.

Regarding `CC(C)CCCCCCCCCC(=O)O` [12-methyldodecanoic acid (C13:0 i)], the pIC50 – broadly, the negative decadic logarithm of the IC50, by convention in mol/L – in data set [1] is ~3.55; in data set [2], ~4.31. Besides, the CC50 (usually the concentration that lowers cell viability or growth by half) at 24 h in data set [3] was 70 µM.

Regarding `CCCCCCCCCCCCCC(=O)O` [14:0, myristic acid, reference compound], the MIC (in general, the smallest concentration in the dilution series that meets the test's criterion for growth inhibition) in data set [4] (setting [6]) was > 81 µM; in data set [4] (setting [7]), > 18.5 µg/mL. The “activity at inhibiting C. albicans germination” value in data set [4] is “inactive”.

For `CCCCCCCCCCCCCCC(=O)O` [15:0, pentadecanoic acid, reference compound], the values for the MIC in data set [4] (setting [8]) and in data set [4] (setting [9]) were > 81 µM and > 19.6 µg/mL, respectively. In data set [4], the “activity at inhibiting C. albicans germination” value was “inactive”.

As to `CCCCCCCCCCCCCCCC(=O)O` [16:0, palmitic acid, reference compound], the figures for the MIC in data set [4] (setting [6]) and in data set [4] (setting [7]) were > 81 µM and > 20.8 µg/mL, respectively. Moreover, the “activity at inhibiting C. albicans germination” value in data set [4] is “inactive”.

As to `CCCCCC/C=C\CCCCCCCC(=O)O` [16:1(n-7), palmitoleic acid], the MIC in data set [4] (setting [8]) turned out to be 9 µM; in data set [4] (setting [9]), 2.29 µg/mL; in data set [4] (setting [10]) it was 9 µM. Further, the “toxicity for C. albicans blastospores” value in data set [5] (Lee's medium, data not shown) is “toxic”. Moreover, the “appearance of germ tubes” value in data set [5] (Spider and HFM7 media) is recorded as “partially inhibited the appearance of germ tubes”.

For `CCCCCCCCCCCCCCCCC(=O)O` [17:0, heptadecanoic acid, reference compound], the MIC was > 81 µM in data set [4] (setting [8]) and > 21.9 µg/mL in data set [4] (setting [9]). In addition, the “activity at inhibiting C. albicans germination” value in data set [4] is “inactive”.

Take `CCCCCCCCCCCCCCCCCC(=O)O` [18:0, stearic acid, reference compound]: the MIC was > 81 µM in data set [4] (setting [6]) and > 23 µg/mL in data set [4] (setting [7]). The “activity at inhibiting C. albicans germination” value in data set [4] is “inactive”.

Regarding `CCCCCCCC/C=C\CCCCCCCC(=O)O` [18:1(n-9), oleic acid, reference compound], the MIC in data set [4] (setting [6]) was > 81 µM; in data set [4] (setting [7]), > 18.5 µg/mL. Also, the “activity at inhibiting C. albicans germination” value in data set [4] is recorded as “no or weak activity”. For the same molecule, the “activity against the germination of C. albicans” value in data set [5] (all inducing media but HFM7) is “weak or no activity”.

In the case of `CCCCC/C=C\C/C=C\CCCCCCCC(=O)O` [18:2(n-6), linoleic acid], the MIC in data set [4] (setting [8]) was found to be 81 µM; in data set [4] (setting [9]), 22.7 µg/mL; in data set [4] (setting [10]), 81 µM. Moreover, the “germ tube emergence and elongation” value in data set [5] is on record as “produced germ tubes (2-4 h), but their further elongation was blocked”.

In the case of `CCCCC/C=C\C/C=C\C/C=C\C/C=C\CCCC(=O)O` [20:4(n-6), arachidonic acid], the MIC was determined as 27 µM in data set [4] (setting [8]), 8.22 µg/mL in data set [4] (setting [9]) and 27 µM in data set [4] (setting [10]). The “appearance of germ tubes” value in data set [5] (Spider and HFM7 media) is “partially inhibited the appearance of germ tubes”; in data set [5] (dextrose-free Sabouraud and Lee's inducing media), “strongly inhibited the appearance of germ tubes”.

Regarding “conjugated linoleic acid [18:2(CLA 9c-11t)]”, in data set [4] (setting [10]), the MIC is listed as 9 µM. Moreover, the “MIC, antihyphal growth activity of individual free fatty acids” value in data set [4] (same MIC in μg/ml (in brackets), commercial free fatty acids, gravimetrical quantification) is 2.52 µg/mL. In data set [5], the “germ tube emergence and elongation” value is reported as “produced germ tubes (2-4 h), but their further elongation was blocked”.
